Assay results published in EP4800016A1, “METTL3 INHIBITOR” (Hangzhou Bangshun Pharmaceutical Co., Ltd., priority 2023, dated 2025).

Experiments:
METTL3/14 = biological target: T1, METTL3/14 (Homo sapiens, UniProt Q86U44); assay: METTL3/14 methyltransferase activity assay (HTRF); format: biochemical; conditions: 10 concentrations, 3-fold dilution from 10 µM
T1 construct: purchased active motif 31570
Experimental: The final initial concentration of the compound was 10 µM, with 3-fold serial dilution to give a total of 10 concentrations. 100 nL of the compound was transferred to a 384-well plate and centrifuged at 1000 RPM. 2.5 µL of METTL3/14 (active motif, Cat No. 31570) was added to the test wells and incubated at 25°C for 10 min. 2.5 µL of METTL3-Biotin & SAM (GenScript) was added to the test wells andincubated at 25°C for 60 min. 2.5 µL of YTHDF1 (active motif, Cat No. 31608) was added to the test wells and centrifuged at 1000 RPM. 2.5 µL of Streptavidin-Tb (Perkin Elmer Cat No. 61SATLB) & Flag-mede (Perkin Elmer Cat No. 61FG2DLA) was added to the test wells and centrifuged at 1000 RPM. Incubated at 25°C for 60 min. HTRF was measured using a Plate reader. The results of each compound are shown in Table 1, where A+indicates <10nM, A indicates 10-100nM, B indicates 100-1000nM, and C indicates >1000nM.

Kasumi-1 cells = assay: Kasumi-1 cell inhibitory activity (CellTiter-Glo, 5 days); format: cell-based; conditions: Homo sapiens, 120 h, 5 days incubation, CellTiter-Glo luminescence
Experimental: Test compounds were dissolved in DMSO to prep are a 250×final concentration solution. The initial concentration was 10 µM with 3-fold dilution, resulting in a total of ten concentration points. 4 µL of the compound solution was added to 96 µL of cell culture medium to dilute it to 10×the final concentration. On the first day, Kasumi-1 cells (purchased from Precedo) were suspended in cell culture medium at the desired density, 90 µL of the cell suspension was added to a 96-well plate, and 10 µL of 10×compound solution was added for incubation, with a final DMSO concentration of 0.4% in each well. Incubated at 37 °C, 5% CO2 for 5 days. Before measurement after 5 days, the test plate was placed at room temperature, 50 µL of CellTiter-Glo® reagent (purchased from Promega, Cat. No. G7573) was added, mixed on a shaker for 2 minutes to lyse the cells, and incubated at room temperature for 10 minutes to stabilize the […] signal. Luminescence values were recorded using Paradigm, and the response-concentration curve was fitted with Graphpad Pr ism 8.0 to calculate IC50values. The results of each compound are shown in Table2, where A indicates <100nM, B indicates 100-1000nM, and C indicates >1000nM. [formula]

T1 sequence (Q86U44 whole entry): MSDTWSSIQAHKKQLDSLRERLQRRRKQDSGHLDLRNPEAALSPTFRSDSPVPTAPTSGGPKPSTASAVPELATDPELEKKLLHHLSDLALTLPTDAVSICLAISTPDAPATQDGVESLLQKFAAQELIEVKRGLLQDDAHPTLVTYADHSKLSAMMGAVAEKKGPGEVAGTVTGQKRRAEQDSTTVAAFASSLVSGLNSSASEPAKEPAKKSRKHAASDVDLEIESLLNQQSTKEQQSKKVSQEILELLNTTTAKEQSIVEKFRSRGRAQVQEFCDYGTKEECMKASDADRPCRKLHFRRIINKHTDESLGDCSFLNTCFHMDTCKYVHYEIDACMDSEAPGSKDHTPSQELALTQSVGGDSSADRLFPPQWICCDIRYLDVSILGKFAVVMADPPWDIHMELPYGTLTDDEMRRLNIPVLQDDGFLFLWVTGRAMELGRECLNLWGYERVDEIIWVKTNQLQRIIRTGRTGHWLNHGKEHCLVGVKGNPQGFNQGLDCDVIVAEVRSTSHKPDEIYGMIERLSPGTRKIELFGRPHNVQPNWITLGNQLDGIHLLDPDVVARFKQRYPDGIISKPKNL
T1 sequence (Q9HCE5 whole entry partner): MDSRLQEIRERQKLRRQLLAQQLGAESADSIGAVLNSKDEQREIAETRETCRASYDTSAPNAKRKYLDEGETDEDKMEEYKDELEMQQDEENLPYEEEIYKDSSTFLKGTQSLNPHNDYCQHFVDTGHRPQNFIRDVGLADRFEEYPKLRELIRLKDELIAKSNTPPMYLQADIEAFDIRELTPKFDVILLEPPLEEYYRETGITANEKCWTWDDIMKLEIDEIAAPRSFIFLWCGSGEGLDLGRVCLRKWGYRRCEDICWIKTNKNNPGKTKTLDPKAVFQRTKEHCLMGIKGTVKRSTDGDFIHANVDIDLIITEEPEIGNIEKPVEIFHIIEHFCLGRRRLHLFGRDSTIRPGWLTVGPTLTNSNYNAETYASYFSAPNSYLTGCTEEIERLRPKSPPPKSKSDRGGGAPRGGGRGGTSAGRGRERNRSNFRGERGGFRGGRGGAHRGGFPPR

Structure (SMILES)	IC50 (METTL3/14)	IC50 (Kasumi-1 cells)
O=C(NCc1ccc2cc(CNCC3CCC3)[nH]c2c1)c1cc(=O)n2cc3c(cc2n1)OCCO3 [Example 20, N-((2-(((Cyclobutylmethyl)amino)methyl)-1H-indol-6-yl)methyl)-9-oxo-2,3-dihydro-9H-[1,4]dioxolo[2',3':4,5]pyrido[1,2-a]pyrimidine-7-carboxamide]	0.01 to 0.1 µM	0.1 to 1 µM
O=C(NCc1cc2[nH]c(CNCC3CCC3)cc2s1)c1cc(=O)n2cc3c(cc2n1)OCO3 [Example 32, N-((5-(((Cyclobutylmethyl)amino)methyl)-4H-thieno[3,2-b]pyrrol-2-yl)methyl)-8-oxo-8H-[1,3]dioxolo[4',5':4,5]pyrido[1,2-a]pyrimidine-6-carboxamide]	0.01 to 0.1 µM	0.1 to 1 µM
O=C(NCc1ccc2cc(CNCC34CC(F)(C3)C4)[nH]c2c1)c1cc(=O)n2cc3c(cc2n1)OCO3 [Example 36, N-((2-((((3-Fluorobicyclo[1.1.1]pentan-1-yl)methyl)amino)methyl)-1H-indol-6-y1)methyl)-8-oxo-8H-[1,3]dioxolo[4',5':4,5]pyrido[1,2-a]pyrimidine-6-carboxamide]	< 0.01 µM	< 0.1 µM
O=C(NCc1cn2cc(CNCC3CCC3)ccc2n1)c1cc(=O)n2cc3c(cc2n1)OCO3 [Example 41, N-((6-(((cyclobutylmethyl)amino)methyl)imidazo[1,2-a]pyridin-2-yl)methyl)-8-oxo-8H-[1,3]dioxolo[4',5':4,5]pyrido[1,2-a]pyrimidine-6-carboxamide]	< 0.01 µM	0.1 to 1 µM
O=C(NCc1ccc2cc(CNCC3CCC3)[nH]c2c1)c1cn2ncc3c2c(n1)NCCO3 [Example 44, N-((2-(((Cyclobutylmethyl)amino)methyl)-1H-indol-6-yl)methyl)-7,8-dihydro-6H-9-oxa-2,2a,5,6-tetraazabenzo[cd]azulene-4-carboxamide]	0.01 to 0.1 µM	0.1 to 1 µM
CC1(CNCc2cc3ccc(CNC(=O)c4cc(=O)n5cc6c(cc5n4)OCO6)cc3[nH]2)CCC1 [Example 51, N-((2-((((1-Methylcyclobutyl)methyl)amino)methyl)-1H-indol-6-yl)methyl)-8-oxo-8H-[1,3]dioxolo[4',5':4,5]pyrido[1,2-a]pyrimidine-6-carboxamide]	< 0.01 µM	0.1 to 1 µM
CC1(CNCc2cc3ccc(CNC(=O)c4cc(=O)n5cc6c(cc5n4)OCCO6)cc3[nH]2)CC(F)(F)C1 [Example 54, N-((2-((((3,3-Difluoro-1-methylcyclobutyl)methyl)amino)methyl)-1H-indol-6-yl)methyl)-9-oxo-2,3-dihydro-9H-[1,4]dioxino[2',3':4,5]pyrido[1,2-a]pyrimidine-7-carboxamide]	< 0.01 µM	0.1 to 1 µM
[2H]C([2H])(NCc1cc2ccc(CNC(=O)c3cc(=O)n4cc5c(cc4n3)OCO5)cc2[nH]1)C1CCC1 [Example 71, N-((2-(((Cyclobutylmethyl-d2)amino)methyl)-1H-indol-6-yl)methyl)-8-oxo-8H-[1,3]dioxolo[4',5':4,5]pyrido[1,2-a]pyrimidine-6-carboxamide]	< 0.01 µM	< 0.1 µM
O=C(NCc1ccc2cc(CNC[C@H]3CCCO3)[nH]c2c1)c1cc(=O)n2cc3c(cc2n1)OCCO3 [Example 78, (R)-9-Oxo-N-((2-((((tetrahydrofuran-2-yl)methyl)amino)methyl)-1H-indol-6-yl)methyl)-2,3-dihydro-9H-[1,4]dioxino[2',3':4,5]pyrido[1,2-a]pyrimidine-7-carboxamide]	0.01 to 0.1 µM	
O=C(NCc1ccc2cc(CNC[C@@H]3CCO3)[nH]c2c1)c1cc(=O)n2cc3c(cc2n1)OCCO3 [Example 79, (S)-N-((2-(((oxetan-2-ylmethyl)amino)methyl)-1H-indol-6-yl)methyl)-9-oxo-2,3-dihydro-9H-[1,4]dioxolo[2',3':4,5]pyrido[1,2-a]pyrimidine-7-carboxamide]	0.01 to 0.1 µM	
COC1(CNCc2cc3ccc(CNC(=O)c4cc(=O)n5cc6c(cc5n4)OCCO6)cc3[nH]2)CCC1 [Example 80, N-((2-((((1-Methoxycyclobutyl)methyl)amino)methyl)-1H-indol-6-yl)methyl)-9-oxo-2,3-dihydro-9H-[1,4]dioxino[2',3':4,5]pyrido[1,2-a]pyrimidine-7-carboxamide]	0.01 to 0.1 µM	
O=C(NCc1ccc2cc(CN3CCOC4(CCC4)C3)[nH]c2c1)c1cc(=O)n2cc3c(cc2n1)OCCO3 [Example 81, N-((2-((5-oxa-8-azaspiro[3.5]nonan-8-yl)methyl)-1H-indol-6-yl)methyl)-9-oxo-2,3-dihydro-9H-[1,4]dioxino[2',3':4,5]pyrido[1,2-a]pyrimidine-7-carboxamide]	0.1 to 1 µM	
O=C(NCc1ccc2cc(CNCc3ccc(F)s3)[nH]c2c1)c1cc(=O)n2cc3c(cc2n1)OCO3 [Example 82, N-((2-((((5-Fluorothiophen-2-yl)methyl)amino)methyl)-1H-indol-6-yl)methyl)-8-oxo-8H-[1,3]dioxolo[2',3':4,5]pyrido[1,2-a]pyrimidine-6-carboxamide]	0.01 to 0.1 µM	

Continued, in another order:

IC50 (METTL3/14)	Structure (SMILES)	IC50 (Kasumi-1 cells)
0.01 to 0.1 µM	O=C(NCc1ccc2cc(CNCC3CC(F)(F)C3)[nH]c2c1)c1cc(=O)n2cc3c(cc2n1)OCO3 [Example 26, N-((2-((((3,3-Difluorocyclobutyl)methyl)amino)methyl)-1H-indol-6-yl)methyl)-8-oxo-8H-[1,3]dioxolo[4',5':4,5]pyrido[1,2-a]pyrimidine-6-carboxamide]	0.1 to 1 µM
< 0.01 µM	O=C(NCc1ccc2cc(CNC3CCC(F)(F)C3)[nH]c2c1)c1cc(=O)n2cc3c(cc2n1)OCO3 (stereo not drawn) [Example 38, N-((2-(((3,3-Difluorocyclopentyl)amino)methyl)-1H-indol-6-yl)methyl)-8-oxo-8H-[1,3]dioxolo[4',5':4,5]pyrido[1,2-a]pyrimidine-6-carboxamide]	0.1 to 1 µM
0.01 to 0.1 µM	O=C(NCc1ccc2cc(CNCC3CCC3)[nH]c2c1)c1cn2ncc3c2c(n1)NCCC3 [Example 45, N-((2-(((Cyclobutylmethyl)amino)methyl)-1H-indol-6-yl)methyl)-6,7,8,9-tetrahydro-2,2a,5,6-tetraazabenzo[cd]azulene-4-carboxamide]	0.1 to 1 µM
< 0.01 µM	O=C(NCc1ccc2cc(CNCC34CC(F)(C3)C4)[nH]c2c1)c1cc(=O)n2cc3c(cc2n1)OCCO3 [Example 46, N-((2-((((3-Fluorobicyclo[1.1.1]pentan-1-yl)methyl)amino)methyl)-1H-indol-6-yl)methyl)-9-oxo-2,3-dihydro-9H-[1,4]dioxolo[2',3':4,5]pyrido[1,2-a]pyrimidine-7-carboxamide]	< 0.1 µM
< 0.01 µM	CC1(CNCc2cc3ccc(CNC(=O)c4cc(=O)n5cc6c(cc5n4)OCCO6)cc3[nH]2)CCC1 [Example 52, N-((2-((((1-Methylcyclobutyl)methyl)amino)methyl)-1H-indol-6-yl)methyl)-9-oxo-2,3-dihydro-9H-[1,4]dioxino[2',3':4,5]pyrido[1,2-a]pyrimidine-7-carboxamide]	0.1 to 1 µM
< 0.01 µM	CC1(CNCc2cc3ccc(CNC(=O)c4cc(=O)n5cc6c(cc5n4)OCO6)cc3[nH]2)CC(F)(F)C1 [Example 53, N-((2-((((3,3-Difluoro-1-methylcyclobutyl)methyl)amino)methyl)-1H-indol-6-yl)methyl)-8-oxo-8H-[1,3]dioxolo[4',5':4,5]pyrido[1,2-a]pyrimidine-6-carboxamide]	0.1 to 1 µM
0.01 to 0.1 µM	O=C(NCc1c(F)cc2cc(CNCC3CCC3)[nH]c2c1F)c1cc(=O)n2cc3c(cc2n1)OCO3 [Example 75, N-((2-(((Cyclobutylmethyl)amino)methyl)-5,7-difluoro-1H-indol-6-yl)methyl)-8-oxo-8H-[1,3]dioxolo[4',5':4,5]pyrido[1,2-a]pyrimidine-6-carboxamide]	
0.01 to 0.1 µM	O=C(NCc1ccc2cc(CNCc3ccc(F)s3)[nH]c2c1)c1cc(=O)n2cc3c(cc2n1)OCCO3 [Example 76, N-((2-((((5-fluorothiophen-2-yl)methyl)amino)methyl)-1H-indol-6-yl)methyl)-9-oxo-2,3-dihydro-9H-[1,4]dioxino[2',3':4,5]pyrido[1,2-a]pyrimidin-7-carboxamide]	
< 0.01 µM	COC1(CNCc2cc3ccc(CNC(=O)c4cc(=O)n5cc6c(cc5n4)OCO6)cc3[nH]2)CCC1 [Example 83, N-((2-((((1-Methoxycyclobutyl)methyl)amino)methyl)-1H-indol-6-yl)methyl)-8-oxo-8H-[1,3]dioxolo[2',3':4,5]pyrido[1,2-a]pyrimidine-6-carboxamide]	
